Consider two compounds from patent publication US20060106075A1, “Benzothiazole derivatives having beta-2-adrenoreceptor agonist activity” (priority 2002, published 2006).

Like-named read-outs stand apart in the source and are kept apart here.

This test has as its target β2-adrenoceptor (Homo sapiens, UniProt P07550). Nature of the test: β2-adrenoceptor binding potency, classical filtration binding assay. An excerpt:
Accordingly the invention also provides a compound of formula I in free or salt form for use as a pharmaceutical.

Chain of β2-adrenoceptor (P07550 whole entry, species assumed): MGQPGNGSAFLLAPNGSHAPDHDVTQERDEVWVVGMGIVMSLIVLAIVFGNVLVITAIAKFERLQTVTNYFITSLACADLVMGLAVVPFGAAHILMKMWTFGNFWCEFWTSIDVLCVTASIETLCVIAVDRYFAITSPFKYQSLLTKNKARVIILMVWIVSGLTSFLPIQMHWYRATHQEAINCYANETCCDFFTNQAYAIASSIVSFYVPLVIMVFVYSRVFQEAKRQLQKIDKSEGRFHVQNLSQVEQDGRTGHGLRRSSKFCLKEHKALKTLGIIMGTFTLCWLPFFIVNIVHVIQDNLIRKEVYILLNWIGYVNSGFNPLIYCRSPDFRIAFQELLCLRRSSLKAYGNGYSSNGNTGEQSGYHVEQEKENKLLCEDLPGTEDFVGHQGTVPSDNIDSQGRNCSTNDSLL

As for `O=c1[nH]c2c(O)ccc(C(O)CNCCc3ccc(OCCCCc4ccccc4)cc3)c2s1` (centres unmarked) [Example 1, 4-hydroxy7-(1-hydroxy-2-{2-[4-(4-phenyl-butoxy)-phenyl]-ethylamino}-ethyl)-3H-benzothiazol-2-one], for the setting “read-out: Ki (β2)”, the Ki came to 0.3 nM. Regarding `COc1ccc(C[C@@H](C)NCC(O)c2ccc(O)c3[nH]c(=O)sc23)cc1` (some centres unmarked) [Example 3], the affinity corresponds to a Ki of 1.6 nM.
